From patent US8349805B2, “Use of Gonadorelin as a therapeutic agent” (priority 2007, dated 2013)
Ends that are not written are not given here.

Columns and labels:
[1] = system: Primary Human endothelial cells (HUVEC); test: Endothelial cell migration assay; format: cell-based; conditions: 10 micrograms per ml, 22 hours
Description: Thereafter, designated concentration of testing peptides—10 micrograms per ml—was added in duplicate wells.

[2] = system: hepatitis B virus (HBV) ayw strain; test: HBV replication assay in HepG2-2.2.15 cells (TaqMan PCR of secreted HBV DNA); format: cell-based; conditions: 10 micrograms per ml; HepG2-2.2.15, 6 days; combination 0.95 mole peptide 1 and 1.05 mole peptide 2
A549 cells = test: Apoptosis prevention assay (C2 ceramide, Annexin-5); format: cell-based, human; conditions: 10 micrograms per ml, 30 min pretreatment, combination 0.95:1.05 mole
HUVEC = test: Endothelial tube formation assay; format: cell-based, human; conditions: 10 micrograms per ml, 20 hours, combination 1.10 mole:0.90 mole
Description: Positive control was vehicle only.

murine spleen cells = test: Th1/Th2 cytokine profiling assay; format: cell-based, Balb/c mice; conditions: 10 micrograms per ml; Ovalbumin-restimulated murine spleen cells, 72 hours
Description: The Balb/c mice (originated in 1923, it is a popular strain and is used in many different research disciplines. Also classified as an inbred from the production of 20 or more successive brother-sister matings, the Balb/c mouse is albino and small in size) were immunized on Days 1, 15, and 29 with Ovalbumin (Ovalbumin is the main protein found in egg white, commonly used to stimulate an immunological reaction in test animals) in PBS (5 micrograms/injection). On day 50, spleens of the mice were harvested (3 weeks after last boost with Ovalbumin). Cells were cultured (2×10^5/well in triplicate) and incubated with culture medium or test peptides—10 micrograms per ml—for 30 min. Thereafter, additional Ovalbumin was added to the cells at 10 micrograms/ml for in vitro restimulation of the cells. 72 hours later, cell supernatants were harvested and assayed using the Becton Dickinson Mouse Th1/Th2 Cytokine CBA Kit.

HCMV strain AD169 = test: HCMV plaque formation assay in MRC-5 cells; conditions: 10 micrograms per ml, 7-10 days

Molecule	increase of the migration of endothelial cells [1] [%]	inhibition of HBV replication as compared to the virus control infection [2]	reduction of the ceramide-induced apoptosis on human lung cells (A549 cells)	inhibition of the tube formation of human endothelial cells (HUVEC) [%]	change of the production of TNF-alpha (murine spleen cells)	production of IFN-γ (decreased by %) (murine spleen cells)	production of IL-2 (induced by %) (murine spleen cells)	production of IL-4 (decreased by %) (murine spleen cells)	production of IL-5 (decreased by %) (murine spleen cells) [%]	inhibition of HCMV plaque formation as compared to the virus control (HCMV strain AD169)	inhibition of the migration of human endothelial cells ([1]; combination 1.10 mole:0.90 mole) [%]
Met-Gln-Met-Lys-Lys-Val-Leu-Asp-Ser-OH (MQMKKVLDS-OH) [Peptide 2]	16	no effect	did not reduce	4	did not significantly change	27.5%	did not significantly change	did not significantly change	38.8	did not inhibit	
CC(C)C[C@H](NC(=O)CNC(=O)[C@H](Cc1ccc(O)cc1)NC(=O)[C@H](CO)NC(=O)[C@H](Cc1c[nH]c2ccccc12)NC(=O)[C@H](Cc1cnc[nH]1)NC(=O)[C@@H]1CCC(=O)N1)C(=O)N[C@@H](CCCNC(=N)N)C(=O)N1CCC[C@H]1C(=O)NCC(N)=O [Peptide 1]		30.4%	27.05%	6	did not significantly change	did not significantly change	43.6%	65.9%	44.1	did not inhibit	39
